Experimental data published in paper PMC4322365, “A Ligand-observed Mass Spectrometry Approach Integrated into the Fragment Based Lead Discovery Pipeline” (Scientific Reports, 2015).
Values joined by “and” are separate entries in the source; they are usually repeats but may differ in a detail not shown here. Equal values may be shown once.

How the values were obtained:
HCV RNA polymerase NS5B = target: T1, HCV RNA polymerase NS5B (Hepatitis C virus genotype 1b, UniProt P26663); assay: Ligand-observed MS secondary screen of 7 subdivided fragment cocktails; assay type: binding; conditions: 7 cocktails of 50 or 84 fragments; two replicates separated by a slash; S/N > 10 positive; ND: not detected by MS analysis
T1 construct: NS5B with a C-terminal 10-His tag was expressed in E. coli; 10-His (C); made in house; host or cells: E. coli
Description: To reduce possible false-positives from the primary screen, the library was divided to 7 cocktails among which six consist of 50 fragments and the last one of 84 fragments. Individual cocktails were incubated with NS5B protein prior to protein complex isolation and ligand-observed MS analysis, resulting in a total of 12 positive hits after screening the seven cocktails (Figure 1C). […] Thus the confidence in hit identification was enhanced by selecting hits repetitively found from the two screens against cocktails of different diversity. It is noteworthy that the preliminary hits missed in the secondary screen might be due to either nonspecific binding or co-operative binding that only occurred when the entire library was incubated with the target. Apart from the 12 hits, 25 fragments with S/N < 10 from the secondary screen were regarded non-binders and discarded.
In the primary screening, a mixture of 384 fragments (each at a final concentration of 25 μM) and NS5B at 50 μM was prepared in the binding buffer of 20 mM MES (pH 6.5), 300 mM NaCl and 10% glycerol, and incubated for 40 min at 25°C. All fragments of the library were either purchased from Sigma or synthesized in our laboratory, and their structural diversity was summarized in Figure S4. The mixture was then filtered through an ultrafiltration membrane (50 KD MW cut-off) by centrifugation at 13000 g for 10 min at […]. The protein complexes bound with different fragments were washed twice with 10 mM ammonium acetate (pH 6.5) followed by centrifugation to remove the unbound fragments. The resulting solution of the complexes was transferred to a new centrifugal tube, and the ligands were dissociated from NS5B with 90% methanol in deionized water. The released ligands were then separated from the denatured protein by centrifugation at 13000 g for 10 min at 20°C. The supernatant containing the ligands was evaporated by a speed vacuum, reconstituted in 80% methanol, and analyzed by LC/MS. The protein-free control was prepared by using the binding buffer substitute for NS5B during incubation and it underwent the same process as the NS5B incubated sample. In the secondary screen, 384 fragments were divided into 7 cocktails, each consisting of 50 fragments except for the seventh cocktail of 84 fragments. Each cocktail was then incubated with NS5B in the binding buffer at the same final concentration as in the primary screen. […] Ultrafiltration and complex dissociation were performed as described earlier to obtain fragment ligands. Samples were all prepared in duplicate and analyzed separately.
Aliquots of reconstituted ultrafiltrates were analyzed on a Waters Synapt G1 high-dfinition mass spectrometer (Milford, MA) equipped with a Waters Acquity UPLC system. UPLC separation was carried out on a Waters Acquity BEH C18 column (2.1 mm × 50 mm, 1.7 μm) at a flow rate of 200 μL/min, with the mobile phases of water/0.1% formic acid (A) and acetonitrile/0.1% formic acid (B). In the primary screen, the LC gradient was as follows: 0–15 min, 2–50% B; 15–17 min, 50%–90% B; 17–20 min, 90% B. In the secondary screen and the validation assay, the first fraction of gradient (2–50% B) was shortened to 6 min. The regular ESI ion source operated in both positive- and negative-ion modes. Mass spectra were acquired within a mass range from 100 to 800 m/z, with capillary voltage 3.0 kV in the positive mode and 2.6 kV in the negative mode, sample cone voltage 54 V (positive mode) and 45 V (negative mode), extraction cone voltage 4.7 V (positive mode) and 4.0 V (negative mode), desolvation temperature 350°C, source temperature 100°C, and desolvation gas flow 500 L/h. External calibration with a solution of sodium formate achieved mass accuracy within 10 ppm. LC/MS chromatogram extraction and peak area calculation for specific fragments were performed by use of MassLynx software (v4.1, Waters) based on accurate mass measurement of the compound with a tolerance of 0.01 Da. […]

NS5B = target: T2, NS5B (Hepatitis C virus genotype 1b, UniProt P26663); assay: SPR analysis (Biacore T200, immobilized NS5B); assay type: binding; conditions: for SPR Corr. response (RU): corrected response above 5 RU indicates positive binding; for SPR binding: threshold 5 RU
T2 construct: NS5B with a C-terminal 10-His tag was expressed in E. coli; 10-His (C); made in house; host or cells: E. coli
Description: In order to determine the dissociation constant of each fragment ligand, we prepared calibration curves for the MS responses of ten fragments in a mixture (Figure S1) and measured the recovery rate of each fragment (Table S3), which were used to derive the actual concentrations of fragments bound to the target. Kd values were then calculated based on the measured concentrations of fragment ligands dissociated from the target (Table S3). […] Ligand efficiency (LE) values were then derived from Kd's as a measure to justify which fragments to further optimize and elaborate in the FBLD pipeline[46][47] (Figure 2A). To examine the accuracy of Kd measurement using this new approach, we first attempted to utilize ITC for binding affinity assessment. […] SPR was then implemented for Kd determination for these fragment hits. […] However, using the single point measurement method, we were still able to estimate Kd's for these fragment-target interactions to be all within the millimolar range and rank the order of their binding affinity according to corrected responses (Figure 2B). […] The overall consistency of affinity ranking and estimation between the two independent assays implied our new approach enabled reliable assessment of binding affinity, especially valuable for characterizing low-affinity fragments not amenable to conventional biophysical approaches.
The SPR experiment was performed on a Biacore T200 optical biosensor (Biacore Life Sciences, GE Healthcare). Series S sensor chips CM5, NHS, EDC, ethanolamine HCl as well as sampling vials and caps were all obtained from Biacore. A solution of 1 × PBS with 5% DMSO was used as running buffer. NS5B protein at 50 μg/ml prepared in buffer of 10 mM sodium acetate (pH 5.5) was injected for immobilization which reached a level of 8000 RU. During each binding cycle, the fragment solution was injected for 1 min at a flow rate of 30 μL/min and dissociation was monitored for 300 s. Data were collected with the biosensor instrument thermo stated to 25°C. Raw data collected on an SPR biosensor were further processed to remove systematic artifacts stemming from nonspecific binding, signal drift, and bulk refractive index changes. Solvent correction and molecular weight adjustment were also applied in this study. All data processing and analysis was performed using the Biacore T200 Evaluation Software.

T2 sequence (P26663 2420-3010): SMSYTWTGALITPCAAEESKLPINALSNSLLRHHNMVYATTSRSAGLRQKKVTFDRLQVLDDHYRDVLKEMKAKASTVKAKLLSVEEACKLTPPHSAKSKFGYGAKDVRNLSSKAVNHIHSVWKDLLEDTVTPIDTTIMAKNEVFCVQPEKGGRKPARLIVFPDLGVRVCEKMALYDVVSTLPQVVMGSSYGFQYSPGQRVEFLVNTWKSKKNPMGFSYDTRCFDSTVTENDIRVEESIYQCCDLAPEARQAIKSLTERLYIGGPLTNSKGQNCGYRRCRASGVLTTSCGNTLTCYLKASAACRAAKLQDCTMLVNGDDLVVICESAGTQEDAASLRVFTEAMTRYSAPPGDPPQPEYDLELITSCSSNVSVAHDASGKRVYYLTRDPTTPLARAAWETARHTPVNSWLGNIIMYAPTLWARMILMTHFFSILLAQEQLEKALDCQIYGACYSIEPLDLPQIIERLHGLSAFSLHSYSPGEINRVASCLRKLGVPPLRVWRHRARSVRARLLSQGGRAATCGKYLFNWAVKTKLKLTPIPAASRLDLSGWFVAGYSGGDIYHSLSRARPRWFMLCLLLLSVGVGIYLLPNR
T1 sequence (P26663 2420-3010): as above

| SMILES | S/N in the 2nd screen (HCV RNA polymerase NS5B) | SPR Corr. response (RU) (NS5B) | SPR binding (NS5B) |
| --- | --- | --- | --- |
| Cn1c(=O)cc(O)c2ccccc21 [Fragment 130] | 48.4 and 49.4 | 18.4 RU |  |
| O=C(O)c1ccc(C(F)(F)F)cc1 [Fragment 204] | 22.4 and 19.8 | < 5 RU and 3.2 RU | no binding |
| Cc1cc(N)n(-c2ccccc2)n1 [Fragment 131] | 23.1 and 19.4 | 14.7 RU |  |
| Nc1ccc(C(F)(F)F)cn1 [Fragment 162] | 19.7 and 17.3 | 7.6 RU |  |
| Oc1ccc(F)c(Cl)c1 [Fragment 85] | 79.0 and 86.0 | 30.9 RU |  |
| N#CC(c1ccccc1)N1CCOCC1 (stereo not drawn) [Fragment 328] | 17.4 and 16.3 |  | no binding |
| N#CCc1ccc(O)cc1 [Fragment 114] | 103.0 and 91.0 | 55.6 RU |  |
| Cc1ccc2oc(=O)ccc2c1 [Fragment 117] | 34.3 and 39.6 | 24.6 RU |  |
| Oc1ccc(SC(F)(F)F)cc1 [Fragment 237] | 29.0 and 36.0 | 10.0 RU |  |
| Cc1nc2ccccc2nc1C [Fragment 339] | 66.2 and 62.4 | 12.2 RU |  |
